According to patent publication US20120052126A1, “Nanoemulsions Containing Antioxidants And Other Health-Promoting Compounds” (priority 2010, published 2012):

Test system: MDA production (lipid peroxidation) in brain tissue
Experiment: Malonaldehyde (MDA) production in mouse brain after oral administration and sleep fragmentation
Assay type: in vivo, mice
Conditions: gavage once a day for 120 days, then 15 days sleep fragmentation, brain cortex, MDA expressed as fold increase
Excerpt: Male adult mice were obtained having either the human APOE ε4 allele (targeted replacement, n=42) or wild type allele (n=42). […] Administration was by gavage once a day for 120 days. After this period, the subject mice underwent sleep fragmentation (SF) for 15 days. The SF device exposes freely behaving mice in a standard laboratory cage to intermittent tactile stimulation utilizing a motorized mechanical device. Tactile stimulation is produced by a horizontal bar powered by an electrical motor system, which sweeps just above the cage floor from side to side at intermittent functioning mode (2 min). During the […] motion, mice may need to step over the […] passes. Chronic SF may induce inflammatory responses and oxidative stress. After 15 days of SF, the mice were sacrificed and the brain dissected out for MDA and 8-OHdG assays, which are produced by the brain in response to oxidative stress and inflammatory events. MDA production is an indicator of lipid peroxidation. After the mice were sacrificed, an LPO-586 kit (OxisResearch, Portland Oreg.) was used according to the manufacturer's instructions to measure MDA levels in the brain tissue. The animals were anesthetized with CO2 inhalation then decapitated, and the cortex were dissected, snap frozen in liquid nitrogen, and stored at -80° C. until assay the following day. Neuronal tissues were homogenized in 20 mM phosphate buffer (pH 7.4) containing 0.5 mM butylated hydroxytoluene to prevent sample oxidation. […] The samples were then centrifuged and clear supernatants measured at 586 nm. MDA production was then calculated per the standard curve according to the manufacturer's instructions. The relative levels of lipid peroxidation were expressed in fold increase in MDA production.

SMILES | MDA production, Diff of Means (MDA-APOE ε4 allele mice (human APOE ε4 targeted replacement)) | MDA production, Diff of Means (MDA-Wild Type mice)
O=C(O)CCCCC1CCSS1 (stereo not drawn) [lipoic acid (SW), lipoic acid] | 0.663 | 0.46
Cc1c(C)c2c(c(C)c1O)CC[C@@](C)(CCC[C@H](C)CCC[C@H](C)CCCC(C)C)O2 [vitamin E (SW), vitamin E] |  | 0.489
